This assay deals with PMS1. Description: Mini-Gene Reporter Assay—PMS1 (firefly luciferase mini-gene reporter transiently transfected into HEK293 cells). Type of assay: cell-based. Conditions: Homo sapiens; at 5 uM; mini-gene firefly luciferase reporter in HEK293 cells; read-out: PMS1 % Effect at 5 uM. The procedure, abridged: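 HEK293 cells transiently transfected with a mini-gene construct (skipped exon with flanking introns/exons fused to firefly luciferase, pcDNA3.1) are incubated with compounds in duplicate. Exon inclusion raises luminescence; EC50 fitted by Levenberg-Marquardt; effect also scored at 5 μM.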

Where only a bound is given, the exact number is not on record here.

Consider `CCOc1cn2nc(C)cc2cc1C(=O)Nc1cnc(N2CC(NC)C(C)(C)C2)cn1` (stereo not shown) [Compound 503], for which the activation at 5 µM was above 75%. Regarding `CCOc1cn2nc(C)cc2cc1C(=O)Nc1cnc(N2CCC(C3(O)CCNCC3)CC2)cn1` [Compound 505], the activation at 5 µM lay in the range of 50 to 75%. Then `CCOc1cn2nc(C)cc2cc1C(=O)Nc1cnc(N2CCC(n3ncc4c3CNC4)CC2)cn1` [Compound 507], with below 50%. Turning to `CCOc1cn2nc(C)cc2cc1C(=O)Nc1cnc(NC2CNCC23CCC3)cn1` (stereo not shown) [Compound 509], the activation at 5 µM was below 50%. In the case of `CCOc1cn2nc(C)cc2cc1C(=O)Nc1cnc(N2CCOC3(CCCNC3)C2)cn1` (stereo not shown) [Compound 510] it was below 50%; in that of `CCOc1cn2nc(C)cc2cc1C(=O)Nc1cnc(NC2CCN(C(=O)CCCNC)CC2)cn1` [Compound 513], below 50%. As for `CCOc1cn2nc(C)cc2cc1C(=O)Nc1cnc(NCC[C@@H]2CCNC2)cn1` [Compound 516], the activation at 5 µM is below 50%.

Regarding `CCOc1cn2nc(C)cc2cc1C(=O)Nc1cnc(N2CCC(NCC3CC3)CC2)cn1` [Compound 517], the activation at 5 µM was above 75%.

Regarding `CCOc1cn2nc(C)cc2cc1C(=O)Nc1cnc(NC(CNC)Cc2ccccc2)cn1` (stereo not shown) [Compound 518], the activation at 5 µM was below 50%. In the case of `CCOc1cn2nc(C)cc2cc1C(=O)Nc1cnc(N(C)C[C@@H]2CCCCN2)cn1` [Compound 519] it was above 75%.

With `CCOc1cn2nc(C)cc2cc1C(=O)Nc1cnc(N2CCCC(C)(CN)C2)cn1` (stereo not shown) [Compound 522], the activation at 5 µM is below 50%. Take `CCOc1cn2nc(C)cc2cc1C(=O)Nc1cnc(N2CCC(COC3CCNC3)CC2)cn1` (stereo not shown) [Compound 523]: the activation at 5 µM is below 50%. In the case of `CCOc1cn2nc(C)cc2cc1C(=O)Nc1cnc(N2CCN(CC3CCCNC3)CC2)cn1` (stereo not shown) [Compound 524] it was below 50%. For the molecule `CCOc1cn2nc(C)cc2cc1C(=O)Nc1cnc(N2CCCC2CNC)cn1` (stereo not shown) [Compound 525], the activation at 5 µM lay in the range of 50 to 75%.

Take `CCOc1cn2nc(C)cc2cc1C(=O)Nc1cnc(N(C)C[C@@H]2CCCN2)cn1` [Compound 526]: the activation at 5 µM is above 75%. `CCOc1cn2nc(C)cc2cc1C(=O)Nc1cnc(N2CCC(CCNC)CC2)cn1` [Compound 527]: the activation at 5 µM was below 50%. Consider `CCOc1cn2nc(C)cc2cc1C(=O)Nc1cnc(NCC2(C)CCNC2)cn1` (stereo not shown) [Compound 528], for which the activation at 5 µM is below 50%. For the molecule `CCOc1cn2nc(C)cc2cc1C(=O)Nc1cnc(N2CCOC3(CCNC3)C2)cn1` (stereo not shown) [Compound 529], the activation at 5 µM lay in the range of 50 to 75%. In the case of `CCOc1cn2nc(C)cc2cc1C(=O)Nc1cnc(N2CCC3(CCCN3)CC2)cn1` [Compound 530], the activation at 5 µM was above 75%. In the case of `CCOc1cn2nc(C)cc2cc1C(=O)Nc1cnc(NCCNCCOC)cn1` [Compound 531], the activation at 5 µM is below 50%. Then `CCOc1cn2nc(C)cc2cc1C(=O)Nc1cnc(NC[C@@H]2CC(F)(F)CN2)cn1` [Compound 532], with below 50%; and `CCOc1cn2nc(C)cc2cc1C(=O)Nc1cnc(N2CC3CNCC(C3)C2)cn1` [Compound 533], with below 50%. On to `CCOc1cn2nc(C)cc2cc1C(=O)Nc1cnc(N(C)CC2CCCN2)cn1` (stereo not shown) [Compound 534], for which the activation at 5 µM lay within 50 to 75%.

As to `CCOc1cn2nc(C)cc2cc1C(=O)Nc1cnc(N2CC(N)CC(O)C2)cn1` (stereo not shown) [Compound 535], the activation at 5 µM was above 75%. `CCOc1cn2nc(C)cc2cc1C(=O)Nc1cnc(NCC2(F)CNC2)cn1` [Compound 536]: the activation at 5 µM was below 50%.

As to `CCOc1cn2nc(C)cc2cc1C(=O)Nc1cnc(NC2COC3(CNC3)C2)cn1` (stereo not shown) [Compound 537], the activation at 5 µM is below 50%. Regarding `CCOc1cn2nc(C)cc2cc1C(=O)Nc1cnc(N(C)CC2CCNC2)cn1` (stereo not shown) [Compound 538], the activation at 5 µM fell in the range of 50 to 75%. Then `CCOc1cn2nc(C)cc2cc1C(=O)Nc1cnc(NC[C@@H]2C[C@H](F)CN2)cn1` [Compound 539], with below 50%; and `CCCC[C@H]1CN(c2cnc(NC(=O)c3cc4cc(C)nn4cc3OCC)cn2)CCN1` [Compound 540], with above 75%; and `CCOc1cn2nc(C)cc2cc1C(=O)Nc1cnc(N2CC(N3CCNCC3)C2)cn1` [Compound 541], with below 50%.

As to `CCOc1cn2nc(C)cc2cc1C(=O)Nc1cnc(N2CCC3(CC2)CNCCO3)cn1` [Compound 542], the activation at 5 µM is below 50%.

Take `CCOc1cn2nc(C)cc2cc1C(=O)Nc1cnc(N2CCCC(CCN)C2)cn1` (stereo not shown) [Compound 544]: the activation at 5 µM is below 50%. On to `CCOc1cn2nc(C)cc2cc1C(=O)Nc1cnc(N2CCOC3(CCNCC3)C2)cn1` [Compound 545], for which the activation at 5 µM is below 50%. As to `CCOc1cn2nc(C)cc2cc1C(=O)Nc1cnc(N2CCC(NC)C2)cn1` (stereo not shown) [Compound 546], the activation at 5 µM was above 75%. Take `CCOc1cn2nc(C)cc2cc1C(=O)Nc1cnc(N2C[C@H]3CNC[C@H]3C2)cn1` [Compound 547]: the activation at 5 µM was above 75%. As to `CCOc1cn2nc(C)cc2cc1C(=O)Nc1cnc(N2CC3(CCNCC3)C2)cn1` [Compound 548], the activation at 5 µM is above 75%. Then `CCOc1cn2nc(C)cc2cc1C(=O)Nc1cnc(N2C[C@@H]3C[C@H]2CN3)cn1` [Compound 549], with above 75%; and `CCOc1cn2nc(C)cc2cc1C(=O)Nc1cnc(NCC2CCNC2)cn1` (stereo not shown) [Compound 550], with above 75%; and `CCOc1cn2nc(C)cc2cc1C(=O)Nc1cnc(N(C)C2CCNC2)cn1` (stereo not shown) [Compound 551], with above 75%. On to `CCOc1cn2nc(C)cc2cc1C(=O)Nc1cnc(NCCNC)cn1` [Compound 552], for which the activation at 5 µM is above 75%.

For `CCOc1cn2nc(C)cc2cc1C(=O)Nc1cnc(N2CCC(NC)CC2)cn1` [Compound 553], the activation at 5 µM was above 75%.

As to `CCOc1cn2nc(C)cc2cc1C(=O)Nc1cnc(N[C@H]2CCCNC2)cn1` [Compound 554], the activation at 5 µM is above 75%.

With `CCOc1cn2nc(C)cc2cc1C(=O)Nc1cnc(NCC2CCNCC2)cn1` [Compound 555], the activation at 5 µM was below 50%. In the case of `CCOc1cn2nc(C)cc2cc1C(=O)Nc1cnc(N2CCC(N)C2)cn1` (stereo not shown) [Compound 556] it was above 75%. With `CCOc1cn2nc(C)cc2cc1C(=O)Nc1cnc(N2CCC(N)CC2)cn1` [Compound 557], the activation at 5 µM was above 75%. For the molecule `CCOc1cn2nc(C)cc2cc1C(=O)Nc1cnc(N(C)C2CCNCC2)cn1` [Compound 558], the activation at 5 µM is above 75%.

For the molecule `CCOc1cn2nc(C)cc2cc1C(=O)Nc1cnc(NC2CCNCC2)cn1` [Compound 559], the activation at 5 µM was above 75%. Then `CCOc1cn2nc(C)cc2cc1C(=O)Nc1cnc(N2CCCNCC2)cn1` [Compound 561], with above 75%; and `CCOc1cn2nc(C)cc2cc1C(=O)Nc1cnc(NCC2C=CCN2)nc1` (stereo not shown) [Compound 562], with below 50%; and `CCOc1cn2nc(C)cc2cc1C(=O)Nc1cnc(NCCCC2CCCN2)nc1` (stereo not shown) [Compound 563], with below 50%. In the case of `CCOc1cn2nc(C)cc2cc1C(=O)Nc1cnc(N2CCC(N)(CC)CC2)nc1` [Compound 564] it was below 50%.

Take `CCOc1cn2nc(C)cc2cc1C(=O)Nc1cnc(NCC2CNC(C)C2)nc1` (stereo not shown) [Compound 566]: the activation at 5 µM is below 50%.

The values above are taken from patent US20250066389A1, “HETEROCYCLIC AMIDES AND METHODS OF USING THE SAME” (Rgenta Therapeutics, Inc., priority 2021, published 2025).
